Laboratory results from patent US20250295648A1 (priority 2024, published 2025).
“And” between values parts separate entries of the source, which are not always exact repeats. Identical values can stand only once.

System: L-DOPA-induced dyskinesia in Parkinson's disease patients
Assay: Unified Dyskinesia Rating Scale (UDysRS) after 150% L-DOPA challenge
Details: for UDysRS Parts 3 and 4 most severe, collected value, median / UDysRS Parts 1, 2, 3, and 4 average, absolute change from baseline, mean / UDysRS Parts 1, 2, 3, and 4 average, absolute change from baseline, median / UDysRS Parts 1, 2, 3, and 4 average, collected value, mean / UDysRS Parts 1, 2, 3, and 4 average, collected value, median / UDysRS Parts 1, 2, 3, and 4 average, relative change from baseline (%), mean / UDysRS Parts 1, 2, 3, and 4 average, relative change from baseline (%), median / UDysRS Parts 1, 2, 3, and 4 most severe, absolute change from baseline, mean / UDysRS Parts 1, 2, 3, and 4 most severe, absolute change from baseline, median / UDysRS Parts 1, 2, 3, and 4 most severe, collected value, mean / UDysRS Parts 1, 2, 3, and 4 most severe, collected value, median / UDysRS Parts 1, 2, 3, and 4 most severe, relative change from baseline (%), mean / UDysRS Parts 1, 2, 3, and 4 most severe, relative change from baseline (%), median / UDysRS Parts 3 and 4 average, absolute change from baseline, mean / UDysRS Parts 3 and 4 average, absolute change from baseline, median / UDysRS Parts 3 and 4 average, collected value, mean / UDysRS Parts 3 and 4 average, collected value, median / UDysRS Parts 3 and 4 average, relative change from baseline (%), mean / UDysRS Parts 3 and 4 average, relative change from baseline (%), median / UDysRS Parts 3 and 4 most severe, absolute change from baseline, mean / UDysRS Parts 3 and 4 most severe, absolute change from baseline, median / UDysRS Parts 3 and 4 most severe, collected value, mean / UDysRS Parts 3 and 4 most severe, relative change from baseline (%), mean / UDysRS Parts 3 and 4 most severe, relative change from baseline (%), median: per protocol analysis set, N = 15; for UDysRS Parts 3 + 4, highest score of assessment sessions, mean change from baseline / UDysRS Part 3 sum of items, average of assessment sessions, mean change from baseline / UDysRS Part 3 sum of items, highest score of assessment sessions, mean change from baseline / UDysRS Parts 3 + 4, average of assessment sessions, mean change from baseline / UDysRS Total (Parts 1 to 4), average of assessment sessions, mean change from baseline / UDysRS Total (Parts 1 to 4), highest score of assessment sessions, mean change from baseline: per-protocol set; for UDysRS Part 3 sum of items, average of assessment sessions, mean change from baseline: p < 0.05 vs placebo
[1] = Visit 6 Clinic Efficacy Visit (Day 28)
[2] = Visit 7 Clinic Efficacy Visit (Day 42)
[3] = days 28 and 42, within NLX-112 group
[4] = individual patients A-E co-treated with amantadine
[5] = per-protocol set (n = 15), Baseline
[6] = Δ D 28 (end of up-titration), p < 0.01 vs baseline
[7] = Δ D 42 (end of stable dosing), p < 0.001 vs baseline
[8] = Δ D 42 (end of stable dosing), p < 0.01 vs baseline

Description: Patients were rated for dyskinesia at baseline and on days 28 (at end of up-titration period) and 42 (end of stable dosing period). Because the level of dyskinesia experienced by patients can vary over time, they were given 150% (i.e., 1.5×) of their regular L-DOPA dose (up to a maximum of 250 mg) as a challenge 30 min before each dyskinesia assessment to improve comparability between patients and between visits. Patients were filmed 30, 60 and 90 min after dosing with L-DOPA (˜5 min of filming each time). LID was assessed using the Unified Dyskinesia Rating Scale (UDysRS). Changes from baseline are shown for total score (i.e., Parts 1 to 4), for total objective score (i.e., Parts 3+4), and for the sum of Part 3 objective impairment assessment scores. Because objective LID assessment was carried out at 3 time-points (30, 60 and 90 min) following L-DOPA challenge, the above parameters were analyzed based on the most severe of the three scores as well as on the average score of the 3 time points.
The patient took 150% of their normal L-DOPA dose 30 minutes prior to the start of efficacy assessments (UDysRS) at Day 1 (Visit 2), Day 28 (Visit 6) and Day 42 (Visit 7).
The UDysRS is a rating instrument designed to assess the core features of dyskinesia in Parkinson's Disease. The UDysRS consists of 4 parts: • r. Part I, historical disability with regard to the patient's perceptions of the impact on activities of ADL of on-dyskinesia. • s. Part II, historical disability with regard to the patient's perceptions of the impact on ADL of off-dystonia. • t. Part III, objective impairment, which assesses severity of dyskinesia, affected body parts, and type of impairment (choreic vs. dystonic). • u. Part IV, objective disability, based on an evaluation of Part III activities.
Each item in the UDysRS is scored from 0 to 4, with a possible maximum total score of 104.
The UDysRS assessment would be performed at baseline (Day 1, Visit 2), Day 28 and Day 42 (Visits 6 and 7) starting approximately 30 minutes after the L-DOPA challenge on these days.
The data for all 3 assessments performed at each visit would be entered in the eCRF and the Investigator will highlight which of the assessments, corresponding to the assessment where the patient had most severe dyskinesia, that would be used in the descriptive summaries of data.
Change from baseline in the UDysRS total score to Visit 6 (Day 28) and Visit 7 (Day 42) respectively would be summarized using descriptive statistics. […] The same analysis would be done for UDysRS total objective score Part III and IV only.
The baseline value of the dependent variable has been included in the model as a continuous covariate.

With Cc1ccc(CNCC2(F)CCN(C(=O)c3ccc(F)c(Cl)c3)CC2)nc1 [NLX-112, (3-chloro-4-fluoro-phenyl)-[4-fluoro-4-{[(5-methyl-pyridin-2-ylmethyl)-amino]-methyl}piperidin-1-yl]methanone] the “UDysRS Parts 3 and 4 most severe, collected value, median” value (Visit 2 Baseline) was 14.0, the “UDysRS Parts 1, 2, 3, and 4 average, absolute change from baseline, mean” value [1] was −4.82 and the “UDysRS Parts 1, 2, 3, and 4 average, absolute change from baseline, median” value [1] was −3.00. For the same compound, the “UDysRS Parts 1, 2, 3, and 4 average, collected value, mean” value [1] was 25.33, the “UDysRS Parts 1, 2, 3, and 4 average, collected value, median” value [1] was 25.33 and the “UDysRS Parts 1, 2, 3, and 4 average, relative change from baseline (%), mean” value [1] was −9.33%. For the same compound, the “UDysRS Parts 1, 2, 3, and 4 average, relative change from baseline (%), median” value [1] was −10.6%, the “UDysRS Parts 1, 2, 3, and 4 most severe, absolute change from baseline, mean” value [1] was −4.1 and the “UDysRS Parts 1, 2, 3, and 4 most severe, absolute change from baseline, median” value [1] was −2.0. The “UDysRS Parts 1, 2, 3, and 4 most severe, collected value, mean” value [1] was 27.5, the “UDysRS Parts 1, 2, 3, and 4 most severe, collected value, median” value [1] was 28.0 and the “UDysRS Parts 1, 2, 3, and 4 most severe, relative change from baseline (%), mean” value [1] was −10.2%. The “UDysRS Parts 1, 2, 3, and 4 most severe, relative change from baseline (%), median” value [1] was −6.45%, the “UDysRS Parts 3 and 4 average, absolute change from baseline, mean” value [1] was −2.49 and the “UDysRS Parts 3 and 4 average, absolute change from baseline, median” value [1] was −1.67. For the same compound, the “UDysRS Parts 3 and 4 average, collected value, mean” value [1] was 11.60, the “UDysRS Parts 3 and 4 average, collected value, median” value [1] was 10.33 and the “UDysRS Parts 3 and 4 average, relative change from baseline (%), mean” value [1] was −17.3%. The “UDysRS Parts 3 and 4 average, relative change from baseline (%), median” value [1] was −20.0%, the “UDysRS Parts 3 and 4 most severe, absolute change from baseline, mean” value [1] was −1.7 and the “UDysRS Parts 3 and 4 most severe, absolute change from baseline, median” value [1] was −1.0. The “UDysRS Parts 3 and 4 most severe, collected value, mean” value [1] was 13.8, the “UDysRS Parts 3 and 4 most severe, collected value, median” value [1] was 12.0 and the “UDysRS Parts 3 and 4 most severe, relative change from baseline (%), mean” value [1] was −15.8%. For the same compound, the “UDysRS Parts 3 and 4 most severe, relative change from baseline (%), median” value [1] was −8.33%, the “UDysRS Parts 1, 2, 3, and 4 average, absolute change from baseline, mean” value [2] was −6.51 and the “UDysRS Parts 1, 2, 3, and 4 average, absolute change from baseline, median” value [2] was −7.67. For the same compound, the “UDysRS Parts 1, 2, 3, and 4 average, collected value, mean” value [2] was 23.64, the “UDysRS Parts 1, 2, 3, and 4 average, collected value, median” value [2] was 23.00 and the “UDysRS Parts 1, 2, 3, and 4 average, relative change from baseline (%), mean” value [2] was −19.5%. For the same compound, the “UDysRS Parts 1, 2, 3, and 4 average, relative change from baseline (%), median” value [2] was −21.9%, the “UDysRS Parts 1, 2, 3, and 4 most severe, absolute change from baseline, mean” value [2] was −6.3 and the “UDysRS Parts 1, 2, 3, and 4 most severe, absolute change from baseline, median” value [2] was −8.0. For the same compound, the “UDysRS Parts 1, 2, 3, and 4 most severe, collected value, mean” value [2] was 25.3, the “UDysRS Parts 1, 2, 3, and 4 most severe, collected value, median” value [2] was 24.0 and the “UDysRS Parts 1, 2, 3, and 4 most severe, relative change from baseline (%), mean” value [2] was −19.0%. For the same compound, the “UDysRS Parts 1, 2, 3, and 4 most severe, relative change from baseline (%), median” value [2] was −25.8%, the “UDysRS Parts 3 and 4 average, absolute change from baseline, mean” value [2] was −3.31 and the “UDysRS Parts 3 and 4 average, absolute change from baseline, median” value [2] was −3.33. For the same compound, the “UDysRS Parts 3 and 4 average, collected value, mean” value [2] was 10.78, the “UDysRS Parts 3 and 4 average, collected value, median” value [2] was 9.67 and the “UDysRS Parts 3 and 4 average, relative change from baseline (%), mean” value [2] was −25.3%. For the same compound, the “UDysRS Parts 3 and 4 average, relative change from baseline (%), median” value [2] was −31.5%, the “UDysRS Parts 3 and 4 most severe, absolute change from baseline, mean” value [2] was −3.1 and the “UDysRS Parts 3 and 4 most severe, absolute change from baseline, median” value [2] was −4.0. The “UDysRS Parts 3 and 4 most severe, collected value, mean” value [2] was 12.4, the “UDysRS Parts 3 and 4 most severe, collected value, median” value [2] was 11.0 and the “UDysRS Parts 3 and 4 most severe, relative change from baseline (%), mean” value [2] was −21.0%. The “UDysRS Parts 3 and 4 most severe, relative change from baseline (%), median” value [2] was −31.6%, the “UDysRS sum of Part 3 items, average of all 3 assessments, NLX-112 vs placebo” value (day 28 and day 42) was “significantly greater change from baseline” and the “net reduction in UDysRS total score, more than placebo” value (day 42) was 3.9 points. For the same compound, the “UDysRS sum of Part 3 items, most severe assessment, vs baseline” value [3] was “significant reduction”, the “UDysRS total score based on the average of 3 assessments, vs baseline” value [3] was “significant reduction” and the “UDysRS Part 3 + 4, Δ from baseline” value [4] was “+3 and +2 and −11 and −6 (2×)”. The “UDysRS Total, Δ from baseline” value [4] was −2 and +7 and −11 and −8 and −6, the “amantadine-using patients with numerical reductions in UDysRS total score and total objective score” value (of the 5 amantadine-using patients on NLX-112) was 3 and the “UDysRS Part 3 sum of items, average of assessment sessions, mean” value [5] was 21.5. The “UDysRS Part 3 sum of items, highest score of assessment sessions, mean” value [5] was 24.7, the “UDysRS Parts 3 + 4, average of assessment sessions, mean” value [5] was 14.1 and the “UDysRS Parts 3 + 4, highest score of assessment sessions, mean” value [5] was 15.5. The “UDysRS Total (Parts 1 to 4), average of assessment sessions, mean” value [5] was 30.1, the “UDysRS Total (Parts 1 to 4), highest score of assessment sessions, mean” value [5] was 31.6 and the “UDysRS Parts 3 + 4, highest score of assessment sessions, mean change from baseline” value (Δ D 28 (end of up-titration)) was −1.7. For the same compound, the “UDysRS Part 3 sum of items, average of assessment sessions, mean change from baseline” value (Δ D 28 (end of up-titration), p < 0.001 vs baseline) was −5.5, the “UDysRS Part 3 sum of items, highest score of assessment sessions, mean change from baseline” value [6] was −5.5 and the “UDysRS Parts 3 + 4, average of assessment sessions, mean change from baseline” value [6] was −2.5. For the same compound, the “UDysRS Total (Parts 1 to 4), average of assessment sessions, mean change from baseline” value [6] was −4.8, the “UDysRS Total (Parts 1 to 4), highest score of assessment sessions, mean change from baseline” value (Δ D 28 (end of up-titration), p < 0.05 vs baseline) was −4.1 and the “UDysRS Part 3 sum of items, average of assessment sessions, mean change from baseline” value (Δ D 42 (end of stable dosing), p < 0.0001 vs baseline) was −7.1. For the same compound, the “UDysRS Part 3 sum of items, highest score of assessment sessions, mean change from baseline” value [7] was −7.8, the “UDysRS Parts 3 + 4, average of assessment sessions, mean change from baseline” value [7] was −3.3 and the “UDysRS Total (Parts 1 to 4), average of assessment sessions, mean change from baseline” value [7] was −6.5. The “UDysRS Parts 3 + 4, highest score of assessment sessions, mean change from baseline” value [8] was −3.1 and the “UDysRS Total (Parts 1 to 4), highest score of assessment sessions, mean change from baseline” value [8] was −6.3.
